Test results published in US6982150B2, “System and method for identifying proteins involved in force-initiated signal transduction” (priority 2002, dated 2006).

How the values were obtained:
[1] = tested on: Triton X-100-insoluble cytoskeletons of L-929 cells; assay: Stretch-dependent GFP paxillin binding to Triton X-100-insoluble cytoskeletons (fluorescence, Western blot); design: species or system Mouse
Description: Cells were washed once with isotonic ISO buffer (20 mM Hepes, pH 7.5, 150 mM NaCl, 0.5 mM EDTA, 1 mM DTT, 4 mM MgCl2, 1 mM PMSF, 15 μg/ml aprotinin), treated with 0.25% Triton X-100/ISO(+) buffer (ISO buffer supplemented with 0.5 mM ATP, 2% BSA) for 2 min. and washed three times with ISO (+) buffer.
The supernatant was filtrated using PD-10 column (Amersham Pharmacia Biotech, Piscataway, N.J.) preequilibrated with ISO buffer.
L-929 cells were cultured on the silicone substrate and Triton X-100 treated for 2 minutes, as indicated above. Thereafter, the Triton-X-100-insoluble cytoskeleton was washed 3 times with ISO(+) buffer to remove Triton X-100 and remaining Triton-soluble cellular components. After the third wash, the Triton X-100-insoluble cytoskeleton in ISO (+) buffer was left unstretched, stretched for 15 sec, or relaxed (pre-stretched and released from the stretch). The buffer was replaced with the lysate from L929 cells or 293 cells stably transfected with GFP paxillin and incubated for 2 minutes. The lysate was washed 4 times with ISO(+) buffer.
Cytoskeletons were stretched or unstretched. […]

L-929 cells = assay: Stretch-dependent paxillin assembly at focal contacts in intact cells (fluorescence microscopy / immunostaining); type: cell-based, Mouse; details: intact L-929 cells, biaxial stretch 10%, genistein 100 μM, FIG. 4B
Description: Subconfluent L-929 cells transiently transfected with GFP paxillin in the collagen-coated (type I) silicone membrane (Flexcell International, Hillsborough, N.C.) were stretched biaxially (10% in each dimension) for 2 min., and the GFP fluorescence was observed by fluorescence microscopy. Five min after stretch, the silicone substrate was relaxed to its original size, and the fluorescence was recorded. For endogenous paxillin measurement, L-929 cells cultured in silicone membranes were stretched likewise for 2 min, and fixed with 3.7% formaldehyde/PBS.
GFP fluorescence of L-929 cells transfected with GFP-paxillin were also observed with an Olympus BX50 microscope with a 60×, 0.9 NA water immersion objective.
For immunostaining, cells were fixed with 3.7% formaldehyde/PBS, perneabilized with 0.1% Triton X-100/PBS before incubation with antibodies to paxillin and vinculin.

Structure (SMILES)	stretch-dependent GFP paxillin binding ([1]; 1 mM added to lysates together with PAO, DTT excluded, FIG. 5C)	stretch-dependent paxillin accumulation (L-929 cells)	amount of GFP paxillin bound to the stretched cytoskeletons ([1]; cells treated prior to Triton extraction, subconfluent, FIG. 5A, 5B, 5D)
[Na+].[Na+].[Na+].[O]=[V]([O-])([O-])[O-] [sodium orthovandate]	did not affect	–	–
O=c1c(-c2ccc(O)cc2)coc2cc(O)cc(O)c12 [genistein]	–	not inhibited	increase
